Measurements as given in patent US7135466B2 (Kirin Beer Kabushiki Kaisha, priority 1999, dated 2006).

target: T1, c-kit (Homo sapiens, UniProt P10721); assay: Inhibitory activity against c-kit autophosphorylation (MO7e cells, h-SCF); format: cell-based; settings: MO7e cells, h-SCF 50 ng/ml; read-out: c-kit IC50
T1 construct: MO7e (human megakaryocytic leukemia cell line) which had been arrested for 20 hr; endogenous in cells; host or cells: MO7e human megakaryocytic leukemia cell line
Procedure, shortened: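 MO7e human megakaryocytic leukemia cells, arrested 20 hr, treated with compound 1 hr, then stimulated with 50 ng/ml h-SCF for 5 min and lysed. Lysates captured on immobilized anti-phosphotyrosine antibody, detected with anti-c-kit primary and HRP secondary antibody; absorbance at 450 nm.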

T1 sequence (P10721 26-976): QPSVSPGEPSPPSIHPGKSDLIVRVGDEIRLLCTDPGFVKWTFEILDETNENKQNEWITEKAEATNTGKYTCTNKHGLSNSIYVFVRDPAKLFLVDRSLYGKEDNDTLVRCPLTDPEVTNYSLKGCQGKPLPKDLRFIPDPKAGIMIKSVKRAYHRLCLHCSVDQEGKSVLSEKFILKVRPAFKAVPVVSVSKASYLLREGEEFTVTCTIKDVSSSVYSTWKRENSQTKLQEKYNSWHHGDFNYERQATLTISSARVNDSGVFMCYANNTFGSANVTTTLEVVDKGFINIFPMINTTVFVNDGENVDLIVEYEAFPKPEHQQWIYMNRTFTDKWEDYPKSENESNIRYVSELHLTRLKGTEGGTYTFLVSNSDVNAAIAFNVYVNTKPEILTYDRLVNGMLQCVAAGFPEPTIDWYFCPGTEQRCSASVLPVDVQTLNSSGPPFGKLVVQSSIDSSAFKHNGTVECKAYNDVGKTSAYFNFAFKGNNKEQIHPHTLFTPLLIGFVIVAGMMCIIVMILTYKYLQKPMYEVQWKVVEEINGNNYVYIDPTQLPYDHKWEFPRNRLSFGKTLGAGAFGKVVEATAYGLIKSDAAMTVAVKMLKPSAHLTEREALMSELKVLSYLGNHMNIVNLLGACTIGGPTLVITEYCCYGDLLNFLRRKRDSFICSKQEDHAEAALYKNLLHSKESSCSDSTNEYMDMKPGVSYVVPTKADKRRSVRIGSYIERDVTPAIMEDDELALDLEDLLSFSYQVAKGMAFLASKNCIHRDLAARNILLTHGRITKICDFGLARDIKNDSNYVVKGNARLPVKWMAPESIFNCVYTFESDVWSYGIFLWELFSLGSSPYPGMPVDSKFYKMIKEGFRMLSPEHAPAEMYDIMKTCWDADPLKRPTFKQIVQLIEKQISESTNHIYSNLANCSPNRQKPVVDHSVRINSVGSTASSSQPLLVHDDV

IC50 [nM] | Compound
109 | COc1cc2nccc(Oc3cc(C)c(NC(=O)OC4CCCCC4)cc3C)c2cc1OC [Example 221, Cyclohexyl N-{4-[(6,7-dimethoxy-4-quinolyl)oxy]-2,5-dimethylphenyl}carbamate]

same assay, conditions: MO7e cells, h-SCF stimulation; read-out: c-kit IC50

IC50 [nM] | Compound
933 | COc1cc2ncnc(Oc3ccc(NCCOc4ccccc4C)cc3)c2cc1OC [Example 862, N-{4-[(6,7-Dimethoxy-4-quinazolinyl)oxy]phenyl}-N-[2-(2-methylphenoxy)ethyl]amine]
80 | COc1cc2nccc(Oc3ccc(NCCOc4ccccc4)cc3)c2cc1OC [Example 869, N-{4-[(6,7-Dimethoxy-4-quinolyl)oxy]phenyl}-N-(2-phenoxyethyl)amine]
532 | COc1cc2nccc(Oc3ccc(NC(=S)NC(=O)c4ccc(F)cc4)cc3F)c2cc1OC [Example 972, N-{4-[(6,7-Dimethoxy-4-quinolyl)oxy]-3-fluorophenyl}-N′-(4-fluorobenzoyl)thiourea]
552 | COc1cc2nccc(Oc3ccc(NC(=S)NC(=O)c4ccccc4)c(C)c3)c2cc1OC [Example 1099, N-Benzoyl-N′-{4-[(6,7-dimethoxy-4-quinolyl)oxy]-2-methylphenyl}thiourea]
< 30 | COc1cc2nccc(Oc3ccc(NC(=S)NC(=O)c4ccc(F)cc4F)c(F)c3)c2cc1OC [Example 1121, N-(2,4-Difluorobenzoyl)-N′-{4-[(6,7-dimethoxy-4-quinolyl)oxy]-2-fluorophenyl}thiourea]
616 | COc1cc2nccc(Oc3ccc(NC(=S)NC(=O)c4c(F)cccc4F)cc3)c2cc1OC [Example 1007, N-(2,6-Difluorobenzoyl)-N′-{4-[(6,7-dimethoxy-4-quinolyl)oxy]phenyl}thiourea]
399 | COc1cc2nccc(Oc3ccc(NCCOc4c(C)cccc4C)cc3)c2cc1OC [Example 855, N-{4-[(6,7-Dimethoxy-4-quinolyl)oxy]phenyl}-N-[2-(2,6-dimethylphenoxy)ethyl]amine]
453 | COc1cc2ncnc(Oc3ccc(SCCCOc4ccccc4F)cc3)c2cc1OC [Example 845, 4-(4-{[3-(2-Fluorophenoxy)propyl]sulfanyl}phenoxy)-6,7-dimethoxyquinazoline]
142 | COc1cc2nccc(Oc3ccc(NC(=S)NC(=O)c4cccc(Br)c4)cc3F)c2cc1OC [Example 946, N-(3-Bromobenzoyl)-N′-{4-[(6,7-dimethoxy-4-quinolyl)oxy]-3-fluorophenyl}thiourea]
447 | COc1cc2nccc(Oc3ccc(NC(=S)NC(=O)C4CC4c4ccccc4)cc3F)c2cc1OC (stereo not shown) [Example 1057, N-{4-[(6,7-Dimethoxy-4-quinolyl)oxy]-3-fluorophenyl}-N′-[(2-phenylcyclopropyl)carbonyl]thiourea]
299 | COc1cc2nccc(Oc3ccc(NC(=S)NC(=O)c4ccccc4C(F)(F)F)cc3)c2cc1OC [Example 902, N-{4-[(6,7-Dimethoxy-4-quinolyl)oxy]phenyl}-N′-[2-(trifluoromethyl)benzoyl]thiourea]

same assay, conditions: Mo7e, figure in parentheses in −( ); at 1000 nM

inhibition at 1 µM [%] | Compound
39 | COc1ccc(C(=O)NC(=S)Nc2ccc(Oc3ccnc4cc(OC)c(OC)cc34)c(Cl)c2)cc1 [Example 983, N-{3-Chloro-4-[(6,7-dimethoxy-4-quinolyl)oxy]phenyl}-N′-(4-methoxybenzoyl)thiourea]
21 | COc1cc2ncnc(Oc3ccc(NC(=S)NC(=O)c4ccccc4OC)cc3)c2cc1OC [Example 929, N-{4-[(6,7-Dimethoxy-4-quinazolinyl)oxy]phenyl}-N′-(2-methoxybenzoyl)thiourea]
25 | COc1cc2nccc(Oc3ccc(NC(=S)NC(=O)c4ccccc4OC)cc3Cl)c2cc1OC [Example 923, N-{3-Chloro-4-[(6,7-dimethoxy-4-quinolyl)oxy]phenyl}-N′-(2-methoxybenzoyl)thiourea]
30 | COc1cc2ncnc(Oc3ccc(NC(=S)NC(=O)c4ccc(C)cc4)cc3)c2cc1OC [Example 984, N-{4-[(6,7-Dimethoxy-4-quinazolinyl)oxy]phenyl}-N′-(4-methylbenzoyl)thiourea]
